Assay results as given in paper PMC12333015, “Profiling the Impact of mGlu7/Elfn1 Protein Interactions on the Pharmacology of mGlu7 Allosteric Modulators” (ACS Chemical Neuroscience, 2025).

Assays:
rat mGlu7 = biological target: T1, rat mGlu7 (Rattus norvegicus, UniProt P35400); test: Thallium flux assay, mGlu7/GIRK HEK293 cells cocultured with pcDNA3 vector control cells; format: cell-based; settings: L-AP4 pEC50 ± SEM, pcDNA, DMSO vehicle
T1 construct: expressed in transfected cells; host or cells: HEK293A cells stably expressing mGlu7 and GIRK1/2
T1 sequence (P35400 35-915): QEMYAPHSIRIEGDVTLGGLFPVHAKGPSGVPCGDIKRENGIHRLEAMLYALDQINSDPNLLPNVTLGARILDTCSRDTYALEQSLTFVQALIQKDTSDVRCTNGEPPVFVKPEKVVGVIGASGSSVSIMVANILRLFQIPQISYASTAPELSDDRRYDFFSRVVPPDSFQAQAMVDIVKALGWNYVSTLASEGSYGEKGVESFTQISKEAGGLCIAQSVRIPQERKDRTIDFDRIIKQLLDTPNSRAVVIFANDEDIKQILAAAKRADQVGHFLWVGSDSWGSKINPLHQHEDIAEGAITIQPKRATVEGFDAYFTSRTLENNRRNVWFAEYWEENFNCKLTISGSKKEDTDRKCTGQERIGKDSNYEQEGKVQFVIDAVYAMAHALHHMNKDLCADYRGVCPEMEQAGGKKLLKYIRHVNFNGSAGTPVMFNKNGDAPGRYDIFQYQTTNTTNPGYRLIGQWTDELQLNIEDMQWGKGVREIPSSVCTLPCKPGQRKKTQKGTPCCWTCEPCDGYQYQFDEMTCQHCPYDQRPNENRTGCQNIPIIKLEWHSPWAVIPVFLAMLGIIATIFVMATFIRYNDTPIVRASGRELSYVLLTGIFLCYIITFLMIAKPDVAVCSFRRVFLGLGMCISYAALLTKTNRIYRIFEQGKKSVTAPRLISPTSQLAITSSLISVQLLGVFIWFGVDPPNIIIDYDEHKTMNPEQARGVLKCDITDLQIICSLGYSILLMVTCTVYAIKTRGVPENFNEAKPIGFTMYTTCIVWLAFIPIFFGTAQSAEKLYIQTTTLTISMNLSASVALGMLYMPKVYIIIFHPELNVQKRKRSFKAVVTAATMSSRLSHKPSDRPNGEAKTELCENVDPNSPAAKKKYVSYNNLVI
Source text: We began our evaluation of mGlu7 ligands in the presence and absence of Elfn1 by using a coculture system as previously described , with several modifications (Figure ). Cells expressing rat mGlu7 and coexpressing G protein inwardly rectifying potassium (GIRK) channels 1 and 2 were cocultured with cells expressing either an empty pcDNA3 vector control or a plasmid containing Elfn1 in the pcDNA3 backbone. We then evaluated the activity of the orthosteric agonist L-AP4 and measured effects on maximal response and pEC50. All responses were normalized to the maximal effect of L-AP4 in the presence of the pcDNA3 control plasmid.
2 Assay design and workflow. (Left panel) Cells expressing rat mGlu7/GIRK (pink) were cocultured with pcDNA3 (blue) or Elfn1 (purple). […] (Right panel) The effect on the concentration–response curve in the presence (purple) or absence (blue) of Elfn1 can be seen by a change in efficacy, potency, and/or basal response.
HEK293A cells stably expressing mouse Elfn1 or pcDNA3 were maintained in growth medium containing 90% Dulbecco’s Modified Eagle Media (DMEM), 10% fetal bovine serum (FBS), 100 units/mL penicillin/streptomycin, 20 mM HEPES, 1 mM sodium pyruvate, 2 mM L-glutamine, 1× nonessential amino acids, and 700 μg/mL G418 sulfate. HEK mGlu7/GIRK cells were maintained in a growth medium with 90% DMEM/F12, 10% dialyzed FBS, 100 units/mL penicillin/streptomycin, 20 mM HEPES, 1 mM sodium pyruvate, 2 mM L-glutamine, 1× nonessential amino acids, 700 μg/mL G418 sulfate, and 600 ng/mL puromycin. All cell culture reagents were purchased from Invitrogen (Carlsbad, CA).
Thallium flux assays were performed as previously described. A mixture of HEK293A mGlu7/GIRK cells and pcDNA3 or Elfn1-expressing HEK293A cells (5000/15,000 cells/20 μL/well for agonist and PAM experiments; 7500/15,000 cells/20 μL/well for NAM experiments) was seeded in 384-well, amine-coated assay plates (Greiner Bio-One, Monroe, NC). Cells were incubated overnight in a humidified 5% CO2 cell culture incubator at 37 °C. […] Following a 1 h incubation at room temperature, the dye loading solution was replaced with 20 μL/well assay buffer and the plates were loaded into a Hamamatsu FDSS 7000 (Bridgewater, NJ). […] Thallium flux data were analyzed by first dividing each point in each wave by the first point in that wave and then subtracting the average of the vehicle control response. The slopes of these vehicle control-subtracted waves were calculated over ten data points beginning 2 s after thallium stimulus addition and fit to a three-parameter logistic equation in GraphPad Prism (La Jolla, CA). In most cases, the final data were normalized to the response of the mGlu7/pcDNA3 with vehicle and 5 mM L-AP4 unless otherwise noted. Potency (pEC50) and maximum responses (E max) induced by compounds were determined using a four-parameter logistical equation in Prism. Basal activity was calculated with data points at the three lowest test concentrations. Maximum activity was calculated with data points at two highest concentrations. All experiments were replicated at least three times in duplicate or triplicate.

[1] = test system: pyramidal cell to SST-IN synapses in the prefrontal cortex; test: Ex vivo whole-cell electrophysiology, eEPSCs recorded from SST-INs in prefrontal cortex slices; format: cell-based, mouse; settings: 30 μM L-AP4 alone, bath applied
Source text: Shown in Figure A are representative traces of eEPSCs recorded from SST-INs in response to 5-pulse stimulation with baseline in black, illustrating the characteristic facilitating nature of pyramidal cell (PYR) to SST-IN synapses.
Transgenic mice (both male and female) expressing tdTomato fluorescent protein in SST-INs were used in this study. They were generated by crossing female homozygous SST-Cre (Sst^tm2.1(cre)Zjh/J, Stock #: 013044, Jackson Laboratories) with male homozygous Ai9 mice (B6;Cg-Gt(Rosa)-26Sor^tm9(CAG‑tdTomato)Hze/J, Stock #: 007909, Jackson Laboratories). All animals were group housed with food and water available ad libitum, kept under a 12 h light/dark cycle with lights on from 6:00 AM to 6:00 PM, and were used for experiments during the light phase. All of the experimental procedures were approved by the Vanderbilt University Animal Care and Use committee and followed the guidelines set forth by the Guide for the Care and Use of Laboratory Animals. […] Whole cell recordings were made from visually identified, fluorescence-labeled SST-INs in layer V of PFC slices under the upright microscope. […] Excitatory postsynaptic currents (EPSCs) were recorded from layer V SST-INs at a holding potential of −80 mV and evoked by electrical stimulation (100 μs duration, applied every 15 s) through a concentric bipolar stimulating electrode placed around 100–150 μm from the recorded cell. The holding potential of −80 mV under voltage clamp is closed to the calculated reversal potential of Cl^– and thus the EPSCs recorded in the present studies had minimal GABAA-mediated component. Electrical stimulation applied near the recorded cell in the cortex presumably activates the local neurons preferentially. […] Data were analyzed using Clampfit 10 (Molecular Devices), Excel (Microsoft), and Prism (GraphPad Software), and presented as mean ± SEM. […]

**Q.** What does the source list for `N[C@@H](CCP(=O)(O)O)C(=O)O` [L-AP4, L-2-amino-4-phosphonobutyric acid, reference compound]?
**A.** EC50 (rat mGlu7; agonist alone (DMSO row of Table 2)): 195 µM; EC50 (rat mGlu7; agonist alone (DMSO row of Table S1)): 240 µM; effect on eEPSC amplitude [1]: reduced eEPSC amplitude
